Laboratory results as given in patent EP1276895B1, “METHOD FOR THE IDENTIFICATION OF ACTIVE SITE PROTEASE INACTIVATORS” (THE UNIVERSITY OF GEORGIA RESEARCH FOUNDATION, INC., priority 2000, dated 2001).
Residues, ends and D or L forms follow the SMILES beside them. *: point of attachment. AFC = O=c1cc(C(F)(F)F)c2ccc(N*)cc2o1; Cbz = O=C(OCc1ccccc1)*; CH2F = FC*

What was measured:
[1] = tested on: purified Taenia solium cysteine protease; assay: Substrate cleavage screen of AFC-linked synthetic substrates (Step II), purified protease; type: biochemical; conditions: 1 ug purified protease, 1 ug substrate, Citrate pH 4.9 with 0.01 M cysteine, 18 h, 37 °C
Procedure: In this step, the most efficacious substrate for detection of the cysteine protease (high Kcat substrate) was determined in vitro along with those substrates which were not well cleaved (low kcat substrates). From this point forth, the following conditions refer to all assays: "assay buffer" refers to 0.4 M Citrate, pH 4.9 (the pH optima of the protease). Incubation time was 18 hours at 37°C. These conditions were determined by our preliminary data to be best for kinetic evaluation of the protease. […] The experiments were conducted in […] Borosilicate mini-culture tubes (Fisher Scientific), and a fluorometer (Turner) was employed for detection of AFC cleavage.
Approximately 1 ug (or a proteolytically detectable amount) of the purified target cysteine protease was incubated individually, with 1 ug of each of the available substrates in 500 uL of assay buffer. During this setup, the substrate was pre-incubated in the assay buffer for a short period of time (20 minutes) in order to reach an equilibrated status before the addition of the protease. Cleavage assessments were based upon the property of the protease to cleave synthetic peptide substrates linked at the C-terminus to 7-Amino-4-Trifluoromethyl Coumarin (AFC) as previously described. AFC linked tripeptides, dipeptides, and monopeptides, (with a variety of permutations at P3-P1) were available from Enzyme Systems Products (Livermore, CA), and were used as the source of the subset. Following incubation of enzyme preparations overnight (18 h, 37 °C) with peptide in assay buffer (Citrate, pH 4.9, supplemented with 0.01 M cysteine), free AFC concentrations were measured fluorometrically (excitation 405 nm, emission 505 nm). The proteolytic cleavage released the AFC group, which was measurable as a free molecule by a standard fluorometer and converted into molar quantities, based upon a previously established standard curve. The simplicity of AFC detection by the fluorometer was a key factor which quickened and simplified the procedures.
In the assay, 1 ug of the purified Taenia cysteine protease was added to a saturating amount of Z-Phe-Arg-AFC (4X10^-5 M) in assay buffer. The experiment was conducted in triplicate and repeated at least 5 times until we were certain that variability in AFC cleavage was not statistically significant.
Vmax was calculated for the cleavage of substrates by the purified target protease and Vmax was calculated for substrates cleaved by the crude mix protease using conventional kinetic modeling calculations already described in the art.

[2] = tested on: purified Taenia solium cysteine protease; assay: Inhibition assay of protease inactivators against the high Vmax cocktail, EC100 and Ki ranking (Step VII B); type: biochemical; conditions: for ranking of protease inactivators by EC100: dilution study, nanomolar levels; for % Inhibition of T. solium CP in vitro: concentration not stated in Table 4; for Ki of protease inactivator: nonlinear fitting and Dixon plot, values not reported
Text: Once the protease inactivators were synthesized in the organic laboratory, they were to be tested for the lowest efficacious concentrations at which they induced 100% inhibition of the target protease (EC100). The top percent cocktail that was employed in the final vehicle selection step of Step III was employed as the source of competition for the inhibitors. In this case, this was the […] which was comprised of Z-FR-AFC, Z-FAR-AFC, Z-AP-AFC, Z-AAK-AFC, and Z-VLR-AFC. The final result would be a ranking of transition state candidate protease inactivators with a high ranking directly correlating to a low EC100 value. The following steps describe the assay:
Step A: Initial Screening. To set up the test control, each protease inactivator was first incubated with the […] (which provided the final differentiation of vehicles in Step III). To begin with, the protease inactivator was incubated at a concentration of 3 X 10^-9M in 500 ul of assay buffer ([…], pH 4.9 supplemented with 10mM L-cysteine). This concentration was determined, after a series of inhibitor dilutions identified, to be the best inhibitor concentration at which a differentiation in inhibitor potential could be noted. Next, a concentration equal to 4 X 10^-5M for each of the individual cocktail components, was added to the mix. The components were allowed to equilibrate for a period of 30 minutes. Finally, active purified enzyme was added to the tubes at a concentration which was always at least 50 times less than the concentration of the lowest concentration in the mix (to provide saturating conditions.) This concentration varied from purification to purification and the amount added depended upon the yield and specific activity of the purified protease.
Positive controls were set up similarly as described for test controls, except that solvent was added in substitution for the protease inactivator (in a volume equal to the […] volume addition). All of the protease inactivators could be dissolved in dimethylsulfoxide (DMSO), and therefore, this was the solvent of choice. Negative controls were set up by adding the protease inactivator and the cocktail substrates in a tube, without the protease. All potential non-proteolytic induced liberation of AFC was therefore controlled for in this tube (a feature which also insured stability of the AFC substrates, since these substrates will freely liberate AFC when unstable).
All controls were set up in triplicate, and experiments repeated a minimum of five times. The assays were incubated at 37°C, overnight. Percent inhibition was calculated as: % Inhibition = ((AFC positive for ʺSIʺ-AFC negative for ʺSIʺ)-(AFC test-AFC negative for ʺSIʺ))/(AFC positive for ʺSIʺ-AFC negative for ʺSIʺ) × 100 [formula]
Because of this, a dilution study was required in order to determine a viable ranking. Thus, the concentration of each of the protease inactivators was lowered with a dose response setup until the most efficacious concentration for 100% inhibition (EC100) could be determined. […] The final result of the assay was a ranked candidate list of protease inactivators. A lower EC100 was attributable to a higher ranking and vice-versa.
In order to determine Ki, all of the high Vmax cocktail substrates were employed for Ki determination (since Ki of the inhibitor for the enzyme is the same regardless of the substrate). To insure the highest accuracy, Ki was to be determined upon a minimum of at least three of the high Kcat substrates. Nonlinear fitting and the Dixon plot were both employed to determine Ki of the top ranked protease inactivators. A further plot was constructed using either Eadie Hofstee as well as Hanes to determine the mode of inhibition. These methods were used in order to determine the type of inhibition.

Taenia crassiceps cysts = assay: Short-term prophylactic protection of BALB/c mice from cysticercosis infection; type: in vivo; conditions: for % Prophylactic protection of BALB/c mice: pre-injected two days, 10 T. crassiceps cysts/mouse, dosed daily for four weeks, cysts counted after one month, versus untreated controls
T. crassiceps cysts [3] = type: in vivo, Taenia crassiceps; conditions: for Percent protection, long-term: BALB/c mice, 5 mice/group, intraperitoneal, treated every day for 30 days post-challenge, left untreated for 5 months, reduction of total cyst number versus controls; for side effects in treated mice, long-term: in vivo
[4] = tested on: normal BALB/c mouse splenocytes; assay: Mouse splenocyte proliferation (3H-thymidine incorporation) with inhibitor alone or inhibitor and Con-A; type: cell-based; conditions: for proliferative response of splenocytes (3H-thymidine incorporation): inhibitor alone; for responsiveness of splenocytes to Con-A: inhibitor and Con-A; for toxicity to normal BALB/c mouse splenocytes in vitro: preliminary results
[5] = tested on: purified Taenia solium cysteine protease; assay: Competitor assay of low Vmax substrates (vehicles) against high Vmax substrate cocktails (Step III), purified protease; type: biochemical; conditions: robustness of inhibition
T. crassiceps cysts [6] = assay: Therapeutic protection study in BALB/c mice; type: in vivo, Taenia crassiceps; conditions: inhibitor treatment began two weeks after infection with T. crassiceps cysts
Text: Mice in all groups survived without noticeable side effects (e.g., coat condition, tail dragging or paresis, etc).

Row | Molecule | cleavage of AFC-linked substrate (Vmax) [1] | ranking of protease inactivators by EC100 [2] | % Inhibition of T. solium CP in vitro [2] [%] | Ki of protease inactivator [2] | % Prophylactic protection of BALB/c mice (Taenia crassiceps cysts) | Percent protection, long-term (T. crassiceps cysts [3]) [%] | side effects in treated mice, long-term (T. crassiceps cysts [3]) | proliferative response of splenocytes (3H-thymidine incorporation) [4] | responsiveness of splenocytes to Con-A [4] | toxicity to normal BALB/c mouse splenocytes in vitro [4] | other results
1 | CC(C)C[C@H](NC(=O)OCc1ccccc1)C(=O)N[C@@H](CC(C)C)C(=O)N[C@@H](Cc1ccc(O)cc1)C(=O)Nc1ccc2c(C(F)(F)F)cc(=O)oc2c1 [Z-LLY-AFC, Z-Leu-Leu-Tyr-AFC] (Cbz-Leu-Leu-Tyr-{AFC}) | noncleavable |  |  |  |  |  |  |  |  |  | 
2 | CC(C)C[C@H](NC(=O)OCc1ccccc1)C(=O)N[C@@H](CC(C)C)C(=O)N[C@@H](Cc1ccc(O)cc1)C(=O)CF [Z-LLY-FMK, Z-Leu-Leu-Tyr-FMK] (Cbz-Leu-Leu-Tyr-CH2F) |  | top inhibitors | 97 | lowest Ki values | 85-97% | 95 | no side effects were noted | do not induce a proliferative response | unaffected | nontoxic | protection from cysticercosis infection, subsequent repeat of the prophylactic experiment (Taenia crassiceps cysts; identical prophylactic experiment repeated): 75%-90%; % Prophylactic protection of BALB/c mice (Taenia crassiceps cysts; listed as Leucine-Leucine-Tyrosine-Fluoromethylketone): 85-97%; side effects / inhibitor toxicity in treated mice, short-term (Taenia crassiceps cysts; visual inspection (coat condition, tail dragging or paresis)): no mice showed effects of inhibitor toxicity; responsiveness of splenocytes to Con-A ([4]; listed as LLY-FMK): do not affect the responsiveness
3 | CC(C)C[C@H](NC(=O)OCc1ccccc1)C(=O)N[C@@H](CC(C)C)C(=O)N[C@@H](CC(C)C)C(=O)Nc1ccc2c(C(F)(F)F)cc(=O)oc2c1 [Z-LLL-AFC, Z-Leu-Leu-Leu-AFC] (Cbz-Leu-Leu-Leu-{AFC}) | noncleavable |  |  |  |  |  |  |  |  |  | percentage drop in inhibition between the 1.4% and the 7.4% cocktail [5]: 25%
4 | Mu-Leu-Tyr-AFC [Mu-LY-AFC] | not cleaved |  |  |  |  |  |  |  |  |  | cleavage of AFC-linked substrate (Vmax) ([1]; listed as M-LY-AFC): noncleavable
5 | CC(C)C[C@H](NC(=O)[C@H](CC(C)C)NC(=O)[C@H](CC(C)C)NC(=O)OCc1ccccc1)C(=O)CF [Z-LLL-FMK, Z-Leu-Leu-Leu-fluoromethylketone] (Cbz-Leu-Leu-Leu-CH2F) |  | top inhibitors | 100 | lowest Ki values | 100% | 80 | no side effects were noted | do not induce a proliferative response | unaffected | nontoxic | % Prophylactic protection of BALB/c mice (Taenia crassiceps cysts; listed as Leucine-Leucine-Leucine-Fluoromethylketone): 100%; % Therapeutic protection of BALB/c mice (T. crassiceps cysts [6]): 60%; responsiveness of splenocytes to Con-A ([4]; listed as LLL-FMK): do not affect the responsiveness
